From article PMC10360056, “Chemical Evolution of Amphiphilic Xenopeptides for Potentiated Cas9 Ribonucleoprotein Delivery” (Journal of the American Chemical Society, 2023)

Key:
HeLa eGFP/tub cells = assay: eGFP knockout study by Cas9 RNP nanocarriers, flow cytometry; type: cell-based; conditions: 48 h treatment
Description: (§1) HeLa WT, HeLa eGFP/tub, HeLa GFPd2 (destabilized eGFP), CT26 eGFP/luc and N2a eGFP/luc cells were grown in DMEM medium supplemented with 10 % FBS, 100 U/mL penicillin, and 100 μg/mL streptomycin. The cells were cultured in ventilated flasks in the cell incubator at 37 °C and 5 % CO2 in a humidified atmosphere. The cells were passaged at a confluency of […]
(§2) Cells were harvested and resuspended in 600 μL of FACS buffer (PBS buffer containing 10 % FBS). The samples were ana-lyzed by flow cytometry on a CytoFLEX S flow cytometer (Beckman Coulter, CA, USA). For eGFP knockout and cellular uptake experiments, 0.6 μL of 1 μg/μL DAPI was added to each sample for differentiating live and dead cells before the measurement. The DAPI signal and BFP fluorescence were detected with 405 nm excitation and 450 nm emission. The eGFP and ATTO488 fluorescence was assayed with 488 nm excitation and 530 nm emission. The ATTO647N fluorescence was assayed with 640 nm excitation and 670 nm emission. Ten thousand of isolated live cells were counted and evaluated. The data were analyzed using FlowJo 7.6.5 by FlowJo, LLC (Becton, Dickinson and Company, USA). […]
(§3) Endosomal escape of Cas9 RNP nanocarriers […]
(§4) Next, the […]
(§5) cells were washed twice with PBS and then fixed with 4 % PFA at RT for 40 min. Afterwards, the cells were washed and incubated with 2 µg/mL DAPI (for staining cell nuclei) for 30 min. Then, the staining solution was removed and 300 μL fresh PBS were added. The slides w ere stored at 4 °C in the dark until the measurement. […]
(§6) Then, the image was conv erted into 8-bit type. The mRuby3/gal8 spots were further determined by Threshold tool, and the number of the spots in the cell cytosol per cell were counted by Analyze Particles tool.
One day prior to the treatments, HeLa eGFP/tub cell s were seeded into 96 -well plates at a density of 5000 cells/well. On the next day, the medium was replaced with 80 μL of fresh medium. 20 μL of Cas9 RNP nanocarriers were added to each well resulting in a series of concentrations of RNP (100, 75, 50, 25, 10, 5, 2.5, 1, 0.5, and 0.1 nM). Lipofectamine CRISPRMAX was tested at the same concentrations of RNP with the preparation procedures as recommended by the manufacturer. The cells were incubated for 48 h. Afterwards, the cells were trypsinized and transfer red to 24-well plates, and incubated for another 72 h. Then, the cells were harvested and prepared for flow cytometry analysis. All experiments were performed in triplicate. eGFP to BFP conversion (HDR) study
One day prior to the treatments, HeLa GFPd2 cel ls were seeded into 96 -well plates at a density of 5000 cells/well. On the next day, the medium was replaced with 80 μL of fresh medium. 20 μL of Cas9 RNP/ssDNA nanocarriers containing different molar ratios of RNP/ssDNA were added to each well resulting i n a series of concentrations of RNP (100, 75, 50, 25, 10, 5, 2.5, 1, 0.5, and 0.1 nM). Lipofectamine CRISPRMAX was tested at the same concentrations of RNP and ssDNA with the prepara-tion procedures as recommended by the manufacturer. The cells were incubat ed for 48 h. Afterwards, the cells were trypsinized and transferred to 24 -well plates, and incubated for another 72 h. Then, the cells were harvested and prepared for flow cytom-etry analysis. […]
Half maximal effective concentration (EC50) values were calculated by GraphPad prism 5. […] All other data were analyzed with GraphPad prism 5 and presented as arithmetic mean ± standard deviation (SD) of at least triplicates. […]

HeLa WT cells = assay: Endocytosis pathway study with inhibitors; type: cell-based; conditions: 1 mM amiloride 2 h, 75 nM RNP, 4 h, flow cytometry
Description: sgRNA amount in naked Cas9/sgRNA ribonucleoproteins (Cas9 RNPs) or Cas9 RNP nanocarriers were determined using a Quant-iTTM RiboGreen® RNA assay kit (Invitrogen, CA, USA). 50 μL of naked Cas9 RNPs or Cas9 RNP nanocarriers con-taining 250 ng Cas9 protein and 50 ng sgRNA were mixed with 50 μL of TE buffer and were added to the 96-well plate. The plate was incubated for 10 min. Afterwards, 100 μL of Ribogreen solution (diluted 1:100 in TE buffer) was added to each well.
The plate was incubated for another 5 min. Ribogreen fluorescence intensity was detected using a microplate reader (Spectra-fluor Plus, Tecan, Männedorf, Switzerland) with excitation and emission wavelength of 485 and 528 nm, respectively. […]
Cells were harvested and resuspended in 600 μL of FACS buffer (PBS buffer containing 10 % FBS). […] The DAPI signal and BFP fluorescence were detected with 405 nm excitation and 450 nm emission. The eGFP and ATTO488 fluorescence was assayed with 488 nm excitation and 530 nm emission. The ATTO647N fluorescence was assayed with 640 nm excitation and 670 nm emission. Ten thousand of isolated live cells were counted and evaluated. The data were analyzed using FlowJo 7.6.5 by FlowJo, LLC (Becton, Dickinson and Company, USA).
Cell viability was determined using an MTT assay. […]
Cellular uptake of Cas9 RNP nanocarriers was evaluated by flow cytometry and confocal laser scanning microscopy (CLSM). […]

CT26 eGFP/luc cells = assay: eGFP knockout in CT26 eGFP/luc cells; type: cell-based, murine; conditions: 1 nM RNP, 48 h treatment
Description: as §1, §2, §3
(§7) Then, the image was conv erted into 8-bit type. The mRuby3/gal8 spots were further determined by Threshold tool, and the number of the spots in the cell cytosol per cell were counted by Analyze Particles tool. […]

N2a eGFP/luc cells = assay: eGFP knockout in N2a eGFP/luc cells; type: cell-based, murine; conditions: 1 nM RNP, 48 h treatment
Description: as §1, §2, §3, §7

HeLa GFPd2 cells = assay: eGFP to BFP conversion (HDR) study, Cas9 RNP/ssDNA co-delivery; type: cell-based; conditions: for HDR: RNP/ssDNA 1/4, 48 h
Description: as §1, §2, §3, §4, §5, §6
One day prior to the treatments, HeLa eGFP/tub cell s were seeded into 96 -well plates at a density of 5000 cells/well. On the next day, the medium was replaced with 80 μL of fresh medium. 20 μL of Cas9 RNP nanocarriers were added to each well resulting in a series of concentrations of RNP (100, 75, 50, 25, 10, 5, 2.5, 1, 0.5, and 0.1 nM). […]

Row | Compound | eGFP knockout (HeLa eGFP/tub cells; 1 nM RNP, N/P 24) | Cas9 RNP uptake after pretreatment with amiloride (macropinocytosis) (HeLa WT cells) | eGFP knockout (disruption) (HeLa eGFP/tub cells; 0.5 nM (500 pM) RNP) | eGFP knockout (HeLa eGFP/tub cells; RNP concentrations down to 5 nM) | eGFP knockout (CT26 eGFP/luc cells) | eGFP knockout (N2a eGFP/luc cells) | HDR (HeLa GFPd2 cells; HeLa GFPd2, 0.5 nM RNP) | HDR (HeLa GFPd2 cells; HeLa GFPd2, 1 nM RNP) | HDR efficiency (HeLa GFPd2 cells; HeLa GFPd2, 10 nM RNP, RNP/ssDNA ratio 1/8, N/P 12, 48 h)
1 | CCCCC/C=C\C/C=C\CCCCCCCC(=O)NCCCC[C@H](NC(=O)CCCCCCC/C=C\C/C=C\CCCCC)C(=O)NCCCC[C@H](NC(=O)CCC(=O)NCCNCCNCCNCCNC(=O)[C@H](Cc1ccc(O)cc1)NC(=O)[C@H](Cc1ccc(O)cc1)NC(=O)[C@H](Cc1ccc(O)cc1)NC(=O)[C@@H](N)CCCCN=[N+]=[N-])C(=O)NCCNCCNCCNCCNC(=O)CCC(=O)N[C@@H](Cc1ccc(O)cc1)C(=O)N[C@@H](Cc1ccc(O)cc1)C(=O)N[C@@H](Cc1ccc(O)cc1)C(=O)O [Stp1-LinA] | ~80% | blocked |  |  |  |  |  |  | 
2 | CCCCC/C=C\C/C=C\CCCCCCCC(=O)NCCCC[C@H](NC(=O)CCCCCCC/C=C\C/C=C\CCCCC)C(=O)NCCCC[C@H](NC(=O)CN(CC(=O)NCCNCCNCCNCCNC(=O)[C@H](Cc1ccc(O)cc1)NC(=O)[C@H](Cc1ccc(O)cc1)NC(=O)[C@H](Cc1ccc(O)cc1)NC(=O)[C@@H](N)CCCCN=[N+]=[N-])CC(F)(F)F)C(=O)NCCNCCNCCNCCNC(=O)CN(CC(=O)N[C@@H](Cc1ccc(O)cc1)C(=O)N[C@@H](Cc1ccc(O)cc1)C(=O)N[C@@H](Cc1ccc(O)cc1)C(=O)O)CC(F)(F)F [TFE-IDAtp1-LinA] | ~88% |  | ~61% | up to 99% | ~55% | 13.4% | ~11% | ~23% | ~28%
